The source of these data is ChEMBL document CHEMBL1201862, “PubChem BioAssay data set” (2004).

Molecules are shown by their SMILES.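 Cultured in 96-well plates, cells were exposed to test compound for 48 hours across five concentrations. At the GI50, growth is halved.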 The source made the active and inactive calls. Rule as the data show it: active = GI50 up to about 1.1 µM and inactive = higher.

Test systems include SR; MDA-MB-435; RPMI-8226; SN12C; RXF 393; UACC-257; MCF7; NCI-H23; MDA-N; NCI/ADR-RES; Hs-578T; MDA-MB-231; SW-620; HCT-116; OVCAR-4; EKVX; BT-549.
Experiment in all cases: growth of human tumour cells (NCI), 48 h

Turning to `CCN(CCCl)c1cc(CN(C)C)cc(NC(=O)c2ccc(C(=O)Nc3cccc(N(CCCl)NN)c3)cc2)c1`, the GI50 in the experiment with SR was < 0.01 µM (active); in the experiment on MDA-MB-435 it was 0.016 µM (active); in the experiment on RPMI-8226, 0.0492 µM (active); in the experiment with SN12C it was 0.0332 µM (active); in the experiment on RXF 393, 0.0285 µM (active); in the experiment on UACC-257, 0.174 µM (active). Also, the GI50 in the experiment with MCF7 was < 0.01 µM (active); with NCI-H23, 0.0242 µM (active); in the experiment on MDA-N, 0.0301 µM (active); with NCI/ADR-RES it was 1.97 µM (inactive); with Hs-578T it was 0.0186 µM (active); in the experiment with MDA-MB-231, 0.185 µM (active). The GI50 in the experiment with SW-620 was < 0.01 µM (active); in the experiment with HCT-116, 0.0277 µM (active); in the experiment with OVCAR-4, 0.0136 µM (active).
Take `COC(=NC(C)C)NC(C)C`: the GI50 is 77.3 µM (inactive) with SR; > 100 µM (inactive) with MDA-MB-435; > 100 µM (inactive) with EKVX; > 100 µM (inactive) in the experiment on RPMI-8226; > 100 µM (inactive) with SN12C; > 100 µM (inactive) in the experiment on MCF7. Moreover, the GI50 in the experiment with NCI-H23, with MDA-N, in the experiment on NCI/ADR-RES, in the experiment on Hs-578T, in the experiment on MDA-MB-231 and with SW-620 was > 100 µM (inactive) in each case. For the same compound, the GI50 with HCT-116 was > 100 µM (inactive).
Turning to `CC(=O)CC(=O)c1cc2c(=O)oc(C)cc2oc1=O`, the GI50 in the experiment with SR, in the experiment on EKVX, in the experiment with RPMI-8226, with SN12C, in the experiment on RXF 393 and in the experiment on UACC-257 was > 37.5 µM (inactive) in each case. Besides, the GI50 in the experiment with MCF7, in the experiment on NCI-H23, in the experiment with MDA-N, in the experiment on NCI/ADR-RES, in the experiment with SW-620 and in the experiment with BT-549 was > 37.5 µM (inactive) in each case. In addition, the GI50 in the experiment on HCT-116 and with OVCAR-4 was > 37.5 µM (inactive) throughout.
`COc1cc(/C=C2\C(=O)N(c3cccc(NC(C)=O)c3)C(c3ccccc3)S2(=O)=O)cc(OC)c1OC` (stereo not given): the GI50 in the experiment on SR was 24.9 µM (inactive); in the experiment with MDA-MB-435, 47.9 µM (inactive); with EKVX, 74.1 µM (inactive); with RPMI-8226 it was 40.7 µM (inactive); in the experiment with SN12C, 67.5 µM (inactive); in the experiment on RXF 393, > 100 µM (inactive). In addition, the GI50 in the experiment on UACC-257 was > 100 µM (inactive); in the experiment with MCF7, 31 µM (inactive); with NCI-H23 it was 79.4 µM (inactive); in the experiment with MDA-N, 40.4 µM (inactive); with NCI/ADR-RES, 94.6 µM (inactive); with MDA-MB-231, > 100 µM (inactive). The GI50 in the experiment with SW-620 was 56.2 µM (inactive); in the experiment with BT-549, 67.3 µM (inactive); with HCT-116 it was 37.8 µM (inactive); in the experiment on OVCAR-4, 70.5 µM (inactive).
Regarding `O=C(c1ccco1)n1c2ccc(Br)cc2c2nc3ccccc3nc21`, the GI50 is > 100 µM (inactive) in the experiment with SR; > 100 µM (inactive) in the experiment on MDA-MB-435; 34.5 µM (inactive) in the experiment on EKVX; 11.2 µM (inactive) in the experiment on RPMI-8226; > 100 µM (inactive) in the experiment on SN12C; 52 µM (inactive) in the experiment on RXF 393. The GI50 with UACC-257 is > 100 µM (inactive); in the experiment with MCF7 it was 5.09 µM (inactive); in the experiment on NCI-H23, 23.7 µM (inactive); in the experiment on MDA-N, > 100 µM (inactive); in the experiment with NCI/ADR-RES, 35.6 µM (inactive); in the experiment on SW-620, 42.6 µM (inactive). Besides, the GI50 in the experiment on BT-549 was 45.4 µM (inactive); with HCT-116, 46.7 µM (inactive); in the experiment on OVCAR-4 it was 48.1 µM (inactive).
As to `O=C1CSC(c2c[nH]c3ccccc23)N1c1ccc(Cl)cc1Cl` (stereo not given), the GI50 is > 100 µM (inactive) with SR; > 10 µM (inactive) in the experiment with MDA-MB-435; > 100 µM (inactive) in the experiment with EKVX; > 100 µM (inactive) with RPMI-8226; > 100 µM (inactive) in the experiment on SN12C; > 100 µM (inactive) in the experiment on RXF 393. Further, the GI50 in the experiment with UACC-257, in the experiment with MCF7, in the experiment with NCI-H23, in the experiment on MDA-N, with NCI/ADR-RES and with MDA-MB-231 was > 100 µM (inactive) in each case. Moreover, the GI50 in the experiment with SW-620, in the experiment with BT-549, in the experiment on HCT-116 and in the experiment with OVCAR-4 was > 100 µM (inactive) each time.
On to `COc1ccc(C(=CCC(C)C2CCC3[C@@H]4C(OC(C)=O)CC5CC(OC(C)=O)CC[C@]5(C)C4CC(OC(C)=O)[C@]23C)c2ccc(OC)cc2)cc1` (stereo not given in full), for which the GI50 in the experiment on SR was 19.5 µM (inactive); in the experiment on MDA-MB-435, 77.1 µM (inactive); in the experiment on EKVX, > 100 µM (inactive); in the experiment with RPMI-8226, 29.2 µM (inactive); in the experiment with SN12C it was > 100 µM (inactive); with UACC-257, 99.5 µM (inactive). Further, the GI50 in the experiment on MCF7 was 20.3 µM (inactive); in the experiment with NCI/ADR-RES it was 80.7 µM (inactive); in the experiment with Hs-578T it was > 100 µM (inactive); with MDA-MB-231 it was > 100 µM (inactive); in the experiment on SW-620 it was 91.4 µM (inactive); in the experiment on HCT-116 it was 66.1 µM (inactive). In addition, the GI50 with OVCAR-4 was 19.1 µM (inactive).
As for `CC(C)(CC(=O)Nc1ccccc1)C(=O)O`, the GI50 with SR, in the experiment on MDA-MB-435, with EKVX, in the experiment on RPMI-8226, in the experiment with SN12C and with UACC-257 was > 100 µM (inactive) each time. Moreover, the GI50 with MCF7, in the experiment on NCI-H23, in the experiment with MDA-N, in the experiment with NCI/ADR-RES, in the experiment on MDA-MB-231 and in the experiment with SW-620 was > 100 µM (inactive) each time. Besides, the GI50 in the experiment on BT-549, in the experiment with HCT-116 and with OVCAR-4 was > 100 µM (inactive) throughout.
Take `N#C[BH2-][n+]1cn(C2CC(O)C(COP(=O)(O)OC3CC(n4c[n+]([BH2-]C#N)c5c(=O)[nH]c(N)nc54)OC3CO)O2)c2nc(N)[nH]c(=O)c21` (stereo not given): the GI50 in the experiment on SR, in the experiment on MDA-MB-435, in the experiment on EKVX, in the experiment with RPMI-8226, in the experiment with SN12C and in the experiment on RXF 393 was > 100 µM (inactive) throughout. The GI50 in the experiment with MCF7, in the experiment on NCI-H23, in the experiment on MDA-N, in the experiment on NCI/ADR-RES, with MDA-MB-231 and in the experiment on SW-620 was > 100 µM (inactive) each time. Also, the GI50 in the experiment on HCT-116 and with OVCAR-4 was > 100 µM (inactive) throughout.
`CON(C)C(=O)C1CCCO1` (stereo not given): the GI50 is > 100 µM (inactive) in the experiment with SR; > 100 µM (inactive) in the experiment on MDA-MB-435; 39.5 µM (inactive) in the experiment on EKVX; 68.7 µM (inactive) in the experiment with RPMI-8226; > 100 µM (inactive) with SN12C; 57.5 µM (inactive) with UACC-257. For the same compound, the GI50 with MCF7 is > 100 µM (inactive); in the experiment on NCI-H23, 18.5 µM (inactive); in the experiment with MDA-N, > 100 µM (inactive); with NCI/ADR-RES, > 100 µM (inactive); with Hs-578T it was > 100 µM (inactive); with MDA-MB-231, > 100 µM (inactive). Further, the GI50 with SW-620, in the experiment on HCT-116 and in the experiment with OVCAR-4 was > 100 µM (inactive) in each case.
As for `c1ccc(C2=NCCc3cc4c(cc32)OCO4)cc1`, the GI50 in the experiment with SR, in the experiment on MDA-MB-435, with EKVX, with SN12C, in the experiment on RXF 393 and in the experiment with UACC-257 was > 100 µM (inactive) in each case. Besides, the GI50 with MCF7, in the experiment with NCI-H23, with MDA-N, with NCI/ADR-RES, with Hs-578T and in the experiment on MDA-MB-231 was > 100 µM (inactive) in each case. The GI50 with SW-620 and in the experiment with OVCAR-4 was > 100 µM (inactive) throughout.
For `Cc1cccc2c1CC1(Cc3c(C)cccc3C1=O)C2=O`, the GI50 with SR, in the experiment on MDA-MB-435, in the experiment with EKVX, in the experiment with RPMI-8226, in the experiment with RXF 393 and in the experiment with UACC-257 was > 100 µM (inactive) in each case. The GI50 in the experiment on MCF7, with NCI-H23, in the experiment with MDA-N, with NCI/ADR-RES, in the experiment on Hs-578T and with MDA-MB-231 was > 100 µM (inactive) in each case. Moreover, the GI50 with SW-620, with HCT-116 and with OVCAR-4 was > 100 µM (inactive) each time.
`C[C@@](Br)(C(=O)O)[C@H](Br)C(=O)O`: the GI50 is > 100 µM (inactive) in the experiment with MDA-MB-435; 83.4 µM (inactive) in the experiment on EKVX; > 100 µM (inactive) in the experiment with RPMI-8226; > 100 µM (inactive) with SN12C; > 100 µM (inactive) in the experiment with RXF 393; > 100 µM (inactive) in the experiment on UACC-257. Further, the GI50 with MCF7, with NCI-H23, in the experiment on MDA-N, in the experiment with NCI/ADR-RES, with MDA-MB-231 and in the experiment on SW-620 was > 100 µM (inactive) each time. For the same compound, the GI50 with BT-549, in the experiment on HCT-116 and with OVCAR-4 was > 100 µM (inactive) each time.
